≈ marks a conversion by molar mass, not a printed value.

From US6485746B1, “Controlled-release sedative-hypnotic compositions and methods related thereto” (Neurocrine Biosciences, Inc., priority 2000, dated 2002) come the findings set out here.

A short description of series [1]: Plasma pharmacokinetics of NBI-34060 (half-life, volume of distribution). Type of series: in vivo, human. From the text: The mean plasma half-life of a sedative-hypnotic compound may be determined using well known techniques. Terminal half-life may be determined using standard pharmacokinetic calculations, such as those presented by Rolland and Tozer (Clinical Pharmacokinetics Concepts and Applications, 3rd. Ed., Chap. 3, 1995). in addition, software is commercially available which performs this calculation, such as the product sold under the tradename “WinNinlin™”(Prof. Ver. 1.5). […] This is estimated by linear regression analysis of the time vs. log concentration of the test compound.
In this experiment, commercially available plasma profiling software (GastroPlus™) (Simulations Plus Inc., CA.) was used to simulate the effects of varying controlled release profiles and pharmacokinetic parameters based on in vivo plasma concentrations of NBI-34060 as measured in 12-healthy male human subjects. […] This assumed that the lower CL drug would distribute to the same tissues as the higher CL drug, so that all half-life changes were because of differences in metabolism and/or renal clearance rather than in volumes. Two oral plasma concentration-time files were created (NBI-Target-Hi.opd and NBI-Target-Lo.opd) with plasma concentration-time points serving as targets (shown as a square in FIGS. 2, 3, 4 and 5). The requirements for Tmax2 for the high target was set at 100% of Tmax1.

One may read the half-life as how long it takes for the measured level to halve. A higher half-life goes with slow loss. The term Vd denotes the apparent volume that relates the amount in the body to the concentration in plasma or blood. A lower Vd goes with confinement near the circulation. As usually defined, the solubility is the concentration that dissolves in the medium under given conditions. The compound `CC(=O)N(C)c1cccc(-c2ccnc3c(C(=O)c4cccs4)cnn23)c1` [NBI-34060, N-methyl-N-(3-{3-[2-thienylcarbonyl]-pyrazolo-[1,5-a]-pyrimidin-7-yl}-phenyl)acetamide] showed a half-life in series [1] (male, human, plasma half-life) of about 1.3 h. In addition, the Vd in series [1] (one-compartment pharmacokinetic model, based on in vivo plasma concentrations in 12 healthy male human subjects) was determined as 159 L. For the same compound, in “Solubility in water” (pH of the solution in water at approximately 20-30 μg/ml), the “resulting pH” value is “approximately 8.0”. In the series “Solubility in water” (water, pH 8, water), this compound yielded a solubility of 20 to 30 µg/mL (≈ 53.1 to 79.7 µM).
